The values below are quoted from earlier work in patent US20180116920A1, “MULTI-STEP PROCESS FOR NO PRODUCTION” (BSN medical GmbH, priority 2015, published 2018).

For data set [1] the following is noted: generally assumed.

Regarding nitrogen monoxide, the “maximum solubility of NO in aqueous solution” value in data set [1] is listed as “approximately 2 mM”. Turning to `N[C@@H](CS)C(=O)O` [cysteine], the redox potential (cysteine-cystine, 25° C., pH 7.0) is −0.2 Volt. Turning to `O=C1O[C@H]([C@@H](O)CO)C(O)=C1O` [ascorbic acid], the standard redox potential (at pH 7 and 25° C.) is recorded as −0.04 V.
